Results reported in patent US11149036B2, “3-(1H-pyrazol-4-yl)pyridine allosteric modulators of the M4 muscarinic acetylcholine receptor” (Merck Sharp & Dohme Corp., priority 2017, dated 2021).

Target: T1, human M4 muscarinic acetylcholine receptor (Homo sapiens, UniProt P08173)
T1 construct: expressed in transfected cells; host or cells: CHO-K1
T1 sequence (P08173 1-479): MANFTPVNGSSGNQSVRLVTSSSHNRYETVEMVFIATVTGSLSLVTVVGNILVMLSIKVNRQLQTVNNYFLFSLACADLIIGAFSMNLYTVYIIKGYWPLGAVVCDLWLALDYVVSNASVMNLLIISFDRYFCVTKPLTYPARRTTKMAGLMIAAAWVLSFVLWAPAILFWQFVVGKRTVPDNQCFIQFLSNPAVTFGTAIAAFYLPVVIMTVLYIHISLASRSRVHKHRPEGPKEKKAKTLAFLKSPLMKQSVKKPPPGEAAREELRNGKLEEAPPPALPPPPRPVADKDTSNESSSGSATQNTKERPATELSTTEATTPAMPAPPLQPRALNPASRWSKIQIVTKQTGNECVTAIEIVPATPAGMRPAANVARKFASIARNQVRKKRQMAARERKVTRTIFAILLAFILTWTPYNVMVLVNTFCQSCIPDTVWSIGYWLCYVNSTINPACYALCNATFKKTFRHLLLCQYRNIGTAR
Test: human FLIPR-based M4 PAM assay (CHO-K1 cells with human M4 receptor and Gaqi5, calcium dye fluorescence)
Assay type: cell-based
Settings: inflection point (IP) of dose response curve, acetylcholine added at 20% of maximum response, read-out: M4 FLIPPR Hu IP
Method in brief: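 CHO-K1 cells stably expressing human M4 with chimeric Gaqi5, calcium-dye loaded ~1 h at 37° C; compound added at increasing concentrations 4 min before acetylcholine at an EC20 concentration (sometimes a further EC70 addition).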

SMILES | EC50 [nM]
O=C1c2cc(-c3ncccc3-c3cnn(CC4(F)CCCC4)c3)ccc2CN1CC1CCC1 [Example 140, 2-(cyclobutylmethyl)-6-(3-(1-((1-fluorocyclopentyl)methyl)-1H-pyrazol-4-yl)pyridin-2-yl)isoindolin-1-one] | 68
Cc1nc2cc(-c3nc(C#N)c(C)cc3-c3cnn(CC4(F)CCCC4)c3)ccn2n1 [Example 141, 5-(1-((1-fluorocyclopentyl)methyl)-1H-pyrazol-4-yl)-3-methyl-6-(2-methyl-[1,2,4]triazolo[1,5-a]pyridin-7-yl)picolinonitrile] | 50
Cc1cc(-c2cnn(CC3(F)CCCC3)c2)c(-c2cnc3c(c2)ncn3C)nc1C#N [Example 142, 5-(1-((1-fluorocyclopentyl)methyl)-1H-pyrazol-4-yl)-3-methyl-6-(3-methyl-3H-imidazo[4,5-b]pyridin-6-yl)picolinonitrile] | 104
Cc1cc(-c2cnn(CC3(F)CCCC3)c2)c(-c2ccn3ncnc3c2)nc1C#N [Example 143, 6-([1,2,4]triazolo[1,5-a]pyridin-7-yl)-5-(1-((1-fluorocyclopentyl)methyl)-1H-pyrazol-4-yl)-3-methylpicolinonitrile] | 71
CC1(Cn2ncc(-c3ccc(C#N)nc3-c3ccn4ccnc4c3)c2C#N)CCCC1 [Example 144, 5-(5-cyano-1-((1-methylcyclopentyl)methyl)-1H-pyrazol-4-yl)-6-(imidazo[1,2-a]pyridin-7-yl)picolinonitrile] | 54
COc1cc2ccc(-c3nc(C)ccc3-c3cnn(CC4CCC5(CC5)C4)c3)cc2nn1 (centres unmarked) [Example 145, 3-methoxy-7-(6-methyl-3-(1-(spiro[2.4]heptan-5-ylmethyl)-1H-pyrazol-4-yl)pyridin-2-yl)cinnoline] | 92
c1cnc(-c2ccc3cccnc3c2)c(-c2cnn(CC3CCCC3)c2)c1 [Example 147, 7-(3-(1-(cyclopentylmethyl)-1H-pyrazol-4-yl)pyridin-2-yl)quinoline] | 50
Cc1ccc(-c2cnn(CC3CCCC3)c2)c(-c2ccc3c(c2)nc(Cl)n3C)n1 [Example 152, 2-chloro-5-(3-(1-(cyclopentylmethyl)-1H-pyrazol-4-yl)-6-methylpyridin-2-yl)-1-methyl-1H-benzo[d]imidazole] | 80
Cn1c(Cl)nc2cc(-c3nc(C#N)ccc3-c3cnn(CC4(C)CCCC4)c3)ccc21 [Example 154, 6-(2-chloro-1-methyl-1H-benzo[d]imidazol-5-yl)-5-(1-((1-methylcyclopentyl)methyl)-1H-pyrazol-4-yl)picolinonitrile] | 44
COCc1nc2cc(-c3nc(C#N)ccc3-c3cnn(CC4(F)CCCC4)c3)ccn2n1 [Example 155, 5-(1-((1-fluorocyclopentyl)methyl)-1H-pyrazol-4-yl)-6-(2-(methoxymethyl)-[1,2,4]triazolo[1,5-a]pyridin-7-yl)picolinonitrile] | 55
N#Cc1ccc(-c2nc(C#N)ccc2-c2cnn(CC3CCCC3)c2)cc1 [Example 160, 6-(4-cyanophenyl)-5-(1-(cyclopentylmethyl)-1H-pyrazol-4-yl)picolinonitrile] | 48
CC1(Cn2cc(-c3ccc(C#N)nc3-c3ccc4cc(N5CCC5)cnc4c3)cn2)CCCC1 [Example 161, 6-(3-(azetidin-1-yl)Quinolin-7-yl)-5-(1-((1-methylcyclopentyl)methyl)-1H-pyrazol-4-yl)picolinonitrile] | 45
Cc1cn2ccc(-c3nc(C#N)c(Cl)cc3-c3cnn(CC4(C)CCCC4)c3)cc2n1 [Example 162, 3-chloro-5-(1-((1-methylcyclopentyl)methyl)-1H-pyrazol-4-yl)-6-(2-methylimidazo[1,2-a]pyridin-7-yl)picolinonitrile] | 40
CC1(Cn2cc(-c3ccc(C#N)nc3-c3ccc4cc(CO)nnc4c3)cn2)CCCC1 [Example 163, 6-(3-(hydroxymethyl)cinnolin-7-yl)-5-(1-((1-methylcyclopentyl)methyl)-1H-pyrazol-4-yl)picolinonitrile] | 46
CC1(Cn2cc(-c3ccc(C#N)nc3-c3ccc4cc(CF)nnc4c3)cn2)CCCC1 [Example 164, 6-(3-(fluoromethyl)cinnolin-7-yl)-5-(1-((1-methylcyclopentyl)methyl)-1H-pyrazol-4-yl)picolinonitrile] | 85
c1cnc2cc(-c3nc(-n4cccn4)ccc3-c3cnn(CC4CCCC4)c3)ccc2c1 [Example 167, 7-(3-(1-(cyclopentylmethyl)-1H-pyrazol-4-yl)-6-(1H-pyrazol-1-yl)pyridin-2-yl)quinoline] | 98
Cn1cnc2cc(-c3nc(F)c(F)cc3-c3cnn(CC4(C)CCCC4)c3)cnc21 [compound 138, 6-(5,6-difluoro-3-(1-((1-methylcyclopentyl)methyl)-1H-pyrazol-4-yl)pyridin-2-yl)-3-methyl-3H-imidazo[4,5-b]pyridine] | 70
COCc1cn2ccc(-c3nc(C#N)ccc3-c3cnn(CC4(C)CCCC4)c3)cc2n1 [compound 156, 6-(2-(methoxymeth-yl)imidazo[1,2-a]pyridin-7-yl)-5-(1-((1-methylcyclopentyl)meth-yl)-1H-pyrazol-4-yl)picolinonitrile] | 29

Now those with a lower EC50, led by results:

EC50 [nM] | SMILES
24 | N#Cc1ccc(-c2cnn(CC3(F)CCCC3)c2)c(-c2ccn3cc(CF)nc3c2)n1 [Example 135, 5-(1-((1-fluorocyclopentyl)methyl)-1H-pyrazol-4-yl)-6-(2-(fluoromethyl)imidazo[1,2-a]pyridin-7-yl)picolinonitrile]
21 | CC1(Cn2cc(-c3cc(F)c(F)nc3-c3ccn4ccnc4c3)cn2)CCCC1 [Example 137, 7-(5,6-difluoro-3-(1-((1-methylcyclopentyl)methyl)-1H-pyrazol-4-yl)pyridin-2-yl)imidazo[1,2-a]pyridine]
17 | O=C1c2cc(-c3ncccc3-c3cnn(CC4(F)CCCC4)c3)ccc2CN1C1CCC1 [Example 139, 2-cyclobutyl-6-(3-(1-((1-fluorocyclopentyl)methyl)-1H-pyrazol-4-yl)pyridin-2-yl)isoindolin-1-one]
23 | N#Cc1ccc(-c2cnn(CC3(F)CCCC3)c2)c(-c2ccn3c(Br)cnc3c2)n1 [Example 153, 6-(3-bromoimidazo[1,2-a]pyridin-7-yl)-5-(1-((1-fluorocyclopentyl)methyl)-1H-pyrazol-4-yl)picolinonitrile]
7 | COc1cc2ccc(-c3nc(C)c(C)cc3-c3cnn(CC4(C)CCCC4)c3)cc2nn1 [Example 157, 7-(5,6-dimethyl-3-(1-((1-methylcyclopentyl)methyl)-1H-pyrazol-4-yl)pyridin-2-yl)-3-methoxycinnoline]
19 | Cc1ccc(-c2cnn(CC3CCCC3)c2)c(-c2ccc3cc(N)nnc3c2)n1 [Example 158, 7-(3-(1-(cyclopentylmethyl)-1H-pyrazol-4-yl)-6-methylpyridin-2-yl)cinnolin-3-amine]
14 | Cc1ccc(-c2cnn(CC3CCCC3)c2)c(-c2ccc3cc(I)nnc3c2)n1 [Example 159, 7-(3-(1-(cyclopentylmethyl)-1H-pyrazol-4-yl)-6-methylpyridin-2-yl)-3-iodocinnoline]
7 | Clc1ccc(-c2cnn(CC3CCCC3)c2)c(-c2ccc3cccnc3c2)n1 [Example 165, 7-(6-chloro-3-(1-(cyclopentylmethyl)-1H-pyrazol-4-yl)pyridin-2-yl)quinoline]
26 | FC(F)Oc1ccc(-c2cnn(CC3CCCC3)c2)c(-c2ccc3cccnc3c2)n1 [Example 166, 7-(3-(1-(cyclopentylmethyl)-1H-pyrazol-4-yl)-6-(difluoromethoxy)pyridin-2-yl)quinoline]
24 | C#Cc1ccc(-c2cnn(CC3CCCC3)c2)c(-c2ccc3cccnc3c2)n1 [Example 168, 7-(3-(1-(cyclopentylmethyl)-1H-pyrazol-4-yl)-6-ethynylpyridin-2-yl)quinoline]
19 | CC1(Cn2cc(-c3cc(F)c(C#N)nc3-c3ccn4cc(CF)nc4c3)cn2)CCCC1 [compound 136, 3-fluoro-6-(2-(fluoro-methyl)imidazo[1,2-a]pyridin-7-yl)-5-(1-((1-methylcyclopentyl)meth-yl)-1H-pyrazol-4-yl)picolinonitrile]
